This note sets out measurements from publication PMC12289066, “Identification of glutathione transferase (GST P1) inhibitors via a high-throughput screening assay and implications as alternative treatment options for breast cancers” (PLOS One, 2025).

Experiment [1] deals with T1, GST P1-1 (Homo sapiens, UniProt P09211).
T1 construct: purchased Sigma-Aldrich
In words: High-throughput GST P1-1 inhibition assay (384-well screen, CDNB/GSH). Format: biochemical. To be noted: compound 10 μM; score 0 = negative control (DMSO), 1 = positive control (EA 50 μM); average of duplicate. As to the method:
(§1) Each drug compound was added to the respective well at a volume of 80 nL of 10 mM stock solution in DMSO, yielding a final compound concentration of 10 μM and a final DMSO concentration of 0.1%. Each plate’s first and last two columns were used as negative (no compound added – 80 nL per well of DMSO) and positive (80 nL of EA added with a final concentration of 50 μM) controls, respectively. The Gyger Certus Flex dispenser was set up using a freshly prepared 1 mM of GSH and 20 nM of GST P1-1, pH 7.4, in one syringe and 8 mM CDNB solution in pure ethanol in the other syringe. Into each well 80 μL of GST-GSH solution was dispensed and incubated at 25°C for 20 minutes before the reaction was initiated by the addition of 4 μL of CDNB solution. The plates were incubated for 2 h in the dark at 25°C and then the absorbance was of each well recorded on a BioTek Synergy NEO HTS multimode plate reader (Agilent®) at a wavelength of 340 nm.
The z’factor was calculated for each plate according to Zhang et al.. The Z-factor is a dimensionless, simple statistical characteristic for each HTS assay. This provides a valuable tool for the comparison and assessment of the quality of assays, and can be utilized in assay optimization and validation. For each plate, the concentration of product was normalized by assigning a score of 0 (0%) to the negative control (average of maximal concentration of product measured in the presence of enzyme without any inhibitor) and a score of 1 (100%) was assigned to the positive control (average minimal concentration of product measured in the presence of enzyme with the reference inhibitor, i.e., EA). The experiment was performed in duplicate and the score for each drug compound was calculated as an average ± standard deviation. […] An internal laboratory information management system (LIMS) was used for basic data processing, management, visualization, and statistical hit validation.

The next experiment deals with MDA-MB-231 cells. Briefly: MTT cytotoxicity assay, MDA-MB-231. Format: cell-based, human. The procedure: (§2) L929, MCF-7, and MDA-MB-231 cell lines were cultured in DMEM GlutaMAX media containing 10% heat-inactivated FBS and 1% (v/v) penicillin-streptomycin at 37°C and CO2 (5%). Cytotoxicity was determined using a 3-(4,5-dimethyl 2-thiazolyl)-2,5-diphenyl-2H-tetrazolium bromide (MTT) assay. 100 μL aliquots and approximately 50’000 cells/well were added to each well of flat-bottomed 96-well plates and incubated for 24 h in a humidified chamber at 37°C under saturated air with a 5% CO2 atmosphere. Stock solutions of 10 mM drug compounds were prepared in DMSO and were sequentially diluted with the cell culture buffer to give a final DMSO concentration of 0.5%. The solutions were added to the 96-well plates in 100 μL aliquots and 100 μL of buffer was added as a control to give a final drug compound concentration range of 0 − 100 μM. The plates were incubated for a further 72 h under the same conditions as before. MTT (10 μL, 5 mg/mL in Dulbecco’s phosphate-buffered saline) was added to each well and the plates were incubated for a further 3 h under the same conditions as before. The culture medium was aspirated from each well and the purple formazan crystals, formed by the mitochondrial dehydrogenase activity of vital cells, were dissolved in 100 μL DMSO. The absorbance of the resulting solutions was measured at 570 and 630 nm using a SpectraMax M5e multimode microplate reader and SoftMax Pro software, version 6.2.2. As the absorbance is directly proportional to the number of surviving cells, the percentage of surviving cells was calculated from the absorbance of wells relative to the control. The reported IC50 values are based on the mean from four independent experiments, each comprising three replicates per concentration.
On the technique in general: Tetrazolium dyes change colour on reduction, which living cells bring about.

The subject of a further experiment is MCF-7 cells. Briefly: MTT cytotoxicity assay, MCF-7. It counts as cell-based, human. The procedure:
as §2

For experiment [2], the target named is T1, GST P1-1. In words: Determination of IC50 for GST P1-1 enzyme (dose-response / reconfirmation assay). It counts as biochemical. As to the method: as §1
The IC50 of the GST P1-1 enzyme was determined for the 80 drug compounds with the highest score in the GST P1-1 screening assay. The assay conditions were used for the screening assay and each drug compound was tested at 8 different concentrations (μM) starting at 30 µM final assay concentration with a half-log dilution and 2 replicates per concentration.

Experiment [3] concerns the target T1, GST P1-1. Briefly: Determination of inhibitor binding mechanism (kinetic GST P1-1 activity assay). Format: biochemical. To be noted: from Km and Vmax versus reaction without inhibitor. The procedure:
The GST P1-1 concentration used in the assays was 0.02 U mL^-1.
1 mM GSH final concentration was used. The GST P1-1 was pre-incubated with the GSH for 20 minutes at room temperature before the addition of 12.5 μL of 4 mM solution of CDNB. The reaction rate was recorded against time using UV/VIS spectrophotometer (SpectraMax M5e from Molecular devices) at […].
The drug compounds’ inhibition mechanism was investigated using the kinetic GST P1-1 activity assay. Concentrations of CDNB ranged from 0–40 mM with the drug solution at a constant concentration of 5 μM. Experiments were performed in duplicate.
The Michaelis-Menten constant, Km, and […] Vmax were calculated using GraphPad Prism 9 software. To identify the type of inhibition the Michaelis-Menten equation was applied (Eq. 1): […]
where v0 is the initial velocity of the reaction, Vmax is the maximum velocity achieved by the reaction at maximum concentrations of substrate, [S] is the concentration of substrate, and Km is the substrate concentration at which the reaction velocity is half of the Vmax (Michaelis-Menten constant). The Michaelis-Menten equation predicts a hyperbolic relationship between initial velocity and substrate concentration, describing the kinetic behavior of enzymes. Evaluating the differences in Km and Vmax compared with the reaction without an inhibitor allows the competition type of an inhibitor to be identified. Competitive inhibitors present an increase in the Km and with Vmax unaffected. Non-competitive inhibitors present a […] Vmax.

For a further experiment, the system named is L929 cells. In words: MTT cytotoxicity assay, L929. Format: cell-based, mouse. To be noted: for selectivity towards the breast cancer cell lines: MCF-7 and MDA-MB-231 versus non-tumorigenic L929, 72 h MTT; for IC50: MTT, 72 h incubation, read-out: IC50 (average ± standard deviation) L929. As to the method:
as §2, with “Cytotoxicity” for “L929, MCF-7, and MDA-MB-231 cell lines were cultured in DMEM GlutaMAX media containing 10% heat-inactivated FBS and 1% (v/v) penicillin-streptomycin at 37°C and CO2 (5%). Cytotoxicity”, “Stock solutions of 10 mM drug compounds were prepared in DMSO and were sequentially diluted with the cell culture buffer to give a final DMSO concentration of 0.5%. The solutions were added to the 96-well plates in 100 μL aliquots and 100 μL of buffer was added as a control to give a final drug compound concentration range of 0 − 100 μM.” left out

The mark [4] stands for this setting: Homo sapiens, MDA-MB-231, MTT, 72 h incubation, read-out: IC50 (average ± standard deviation) MDA-MB-231.
Setting [5] is: Homo sapiens, MDA-MB-231, compound alone, read-out: Concentration IC50 isolated (MDA-MB-231 cell line).
Setting [6] is: Homo sapiens, MCF7, MTT, 72 h incubation, read-out: IC50 (average ± standard deviation) MCF-7.
The mark [7] stands for this setting: Homo sapiens, MCF7, compound alone, read-out: Concentration IC50 isolated (MCF-7 cell line).
The mark [8] stands for this setting: Table 2, rounded values, read-out: IC50 GSTP1 enzymatic reaction.
Where [9] appears, read: reconfirmation assay, Table S2, read-out: IC50 GSTP1.
[10] abbreviates: MTT, 72 h incubation, read-out: IC50 (average ± standard deviation) MDA-MB-231.
Setting [11] is: MTT, 72 h incubation, read-out: IC50 (average ± standard deviation) MCF-7.

Structures can show the parent of a compound that is named as a salt. Where two headings read alike, the source gives them in different places.

T1 sequence (P09211 2-210 limits assumed): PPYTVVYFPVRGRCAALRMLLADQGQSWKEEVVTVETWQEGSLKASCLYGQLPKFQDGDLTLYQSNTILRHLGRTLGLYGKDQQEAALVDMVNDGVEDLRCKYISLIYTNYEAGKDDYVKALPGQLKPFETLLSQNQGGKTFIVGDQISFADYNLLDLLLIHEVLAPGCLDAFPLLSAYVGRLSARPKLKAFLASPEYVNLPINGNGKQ

Consider `O=C1C(=Cc2cccnc2)C(=O)c2ccccc21` [PRT 4165], for which the Score at GST P1-1 [1] is listed as 0.890. The IC50 is 27 ± 6 µM in the experiment on MDA-MB-231 cells (setting [4]); 27 µM in the experiment with MDA-MB-231 cells (setting [5]); 59 ± 7 µM with MCF-7 cells (setting [6]); 59 µM in the experiment with MCF-7 cells (setting [7]); 1.3 µM on GST P1-1 [2] (setting [8]); > 100 µM in the experiment on L929 cells (Mus musculus, L929). Besides, the “Hill Slope (dose-response curve)” value on GST P1-1 [2] (reconfirmation assay) came out at 1.2. Also, the Inhibition mechanism entry on GST P1-1 [3] is listed as “Non-competitive”. The “selectivity towards the breast cancer cell lines” value in the experiment with L929 cells is listed as “reasonable degree of selectivity”.
For the molecule `CCc1ccc(/C=C2/SC(=S)NC2=O)cc1` [10058-F4], the Score on GST P1-1 [1] came out at 0.731. The IC50 in the experiment with MDA-MB-231 cells (setting [4]) turned out to be 15 ± 4 µM; with MDA-MB-231 cells (setting [5]), 15 µM; in the experiment on MCF-7 cells (setting [6]), 14 ± 2 µM; in the experiment with MCF-7 cells (setting [7]), 14 µM; on GST P1-1 [2] (setting [8]), 2.8 µM; at GST P1-1 [2] (setting [9]), 2.75 µM. Besides, the IC50 with L929 cells (Mus musculus, L929) was > 100 µM. Further, the “Hill Slope (dose-response curve)” value on GST P1-1 [2] (reconfirmation assay) is recorded as 1.37. Also, the Inhibition mechanism result at GST P1-1 [3] was “Non-competitive”. Besides, the “selectivity towards the breast cancer cell lines” value in the experiment on L929 cells is “highly selective”.
Consider `CC(C)(C)C(=O)CN1C(=O)[C@H](NC(=O)Nc2cccc(C(=O)O)c2)CN(C2CCCCC2)c2ccccc21` [Nastorazepide], for which the Score on GST P1-1 [1] is given as 0.958. The IC50 was > 100 µM in the experiment with MDA-MB-231 cells (setting [10]), > 100 µM with MCF-7 cells (setting [11]), 3.3 µM on GST P1-1 [2] (setting [8]) and > 100 µM with L929 cells. Moreover, on GST P1-1 [2] (reconfirmation assay), the “Hill Slope (dose-response curve)” value was 10.6.
`CC(C)c1cc(C(C)C)c(CC(=O)NS(=O)(=O)Oc2c(C(C)C)cccc2C(C)C)c(C(C)C)c1` [Avasimibe]: the Score on GST P1-1 [1] came out at 0.835. In addition, the IC50 in the experiment on MDA-MB-231 cells (setting [4]) worked out at 16 ± 1 µM; in the experiment with MCF-7 cells (setting [6]) it was 12 ± 1 µM; at GST P1-1 [2] (setting [8]), 0.4 µM; on GST P1-1 [2] (setting [9]), 0.37 µM; in the experiment with L929 cells (Mus musculus, L929), 13 ± 1 µM.
Regarding `O=C1NC(=O)/C(=C/c2ccc(-c3ccc(F)cc3O)o2)S1` [AS252424], at GST P1-1 [1], the Score turned out to be 0.907. The IC50 in the experiment with MDA-MB-231 cells (setting [10]) worked out at 91 ± 3 µM; in the experiment on MCF-7 cells (setting [11]), 38 ± 2 µM; at GST P1-1 [2] (setting [8]), 0.6 µM; on GST P1-1 [2] (setting [9]) it was 0.61 µM; in the experiment on L929 cells, 24 ± 2 µM. Besides, at GST P1-1 [2] (reconfirmation assay), the “Hill Slope (dose-response curve)” value is given as 1.95.
On to `CC(C)N(CCC(=O)c1ccc2ccccc2c1)Cc1ccccc1` [ZM 39923 (hydrochloride)], for which the Score at GST P1-1 [1] stood at 0.788. In addition, the IC50 was 2.6 ± 0.1 µM with MDA-MB-231 cells (setting [4]); 2.6 µM in the experiment on MDA-MB-231 cells (setting [5]); 4.3 ± 0.1 µM in the experiment on MCF-7 cells (setting [6]); 4.3 µM in the experiment with MCF-7 cells (setting [7]); 1.5 µM at GST P1-1 [2] (setting [8]); 8.2 ± 0.6 µM in the experiment with L929 cells (Mus musculus, L929). In addition, the “Hill Slope (dose-response curve)” value at GST P1-1 [2] (reconfirmation assay) was determined as 1.56. The Inhibition mechanism result at GST P1-1 [3] is given as “Competitive”. The “selectivity towards the breast cancer cell lines” value in the experiment on L929 cells is reported as “reasonable degree of selectivity”.
As to `C[C@H]1COC2=C1C(=O)C(=O)c1c2ccc2c1CCCC2(C)C` [Cryptotanshinone 97.0%, Cryptotanshinone], the Score on GST P1-1 [1] is on record as 1.037. Moreover, the IC50 with MDA-MB-231 cells (setting [4]) is 2.9 ± 0.3 µM; in the experiment on MDA-MB-231 cells (setting [5]) it was 2.9 µM; with MCF-7 cells (setting [6]) it was 0.29 ± 0.04 µM; in the experiment with MCF-7 cells (setting [7]) it was 0.29 µM; at GST P1-1 [2] (setting [8]), 8.9 µM; with L929 cells (Mus musculus, L929) it was 4.4 ± 0.3 µM. For the same molecule, the “Hill Slope (dose-response curve)” value on GST P1-1 [2] (reconfirmation assay) turned out to be 0.85. In addition, the Inhibition mechanism result at GST P1-1 [3] is on record as “Non-competitive”. For the same molecule, in the experiment on L929 cells, the “selectivity towards the breast cancer cell lines” value was “reasonable degree of selectivity”.
